Where a name gives a salt, the structure may show the parent alone. Read-outs that look alike come from different tables or passages of the source.
Legend:
[1] = system: Toxoplasma gondii RH-2F tachyzoites; assay: microbe, parasite or virus in culture; details: 72 h
[2] = system: non-muscle myosin II ATPases; design: method as in vendor brief description; details: ref vendor brief description; cited from earlier work
[3] = biological target: transient receptor potential vanilloid-1 (TRPV1); design: method as in vendor brief description; details: ref vendor brief description; cited from earlier work
[4] = system: P-glycoprotein; details: cited from earlier work
[5] = biological target: human muscarinic AChR M5; design: method as in vendor brief description; details: ref vendor brief description; cited from earlier work
[6] = biological target: human muscarinic AChR M1; design: method as in vendor brief description; details: ref vendor brief description; cited from earlier work
[7] = biological target: human muscarinic AChR M4; design: method as in vendor brief description; details: ref vendor brief description; cited from earlier work
[8] = biological target: human muscarinic AChR M3; design: method as in vendor brief description; details: ref vendor brief description; cited from earlier work
[9] = biological target: human muscarinic AChR M2; design: method as in vendor brief description; details: ref vendor brief description; cited from earlier work
[10] = system: PDE5; details: read-out: IC50 PDE5; ref vendor brief description; cited from earlier work
[11] = system: AXL; design: method as in vendor brief description; details: ref vendor brief description; cited from earlier work
[12] = system: Flt-4; design: method as in vendor brief description; details: ref vendor brief description; cited from earlier work
[13] = in vitro; details: human, Host viability (%) mean
[14] = system: VEGFR-2; design: method as in vendor brief description; details: ref vendor brief description; cited from earlier work
[15] = system: Flt-1; design: method as in vendor brief description; details: ref vendor brief description; cited from earlier work
[16] = system: Kit; design: method as in vendor brief description; details: ref vendor brief description; cited from earlier work
[17] = system: Ret; design: method as in vendor brief description; details: ref vendor brief description; cited from earlier work
[18] = biological target: αvβ3 receptor; design: method as in vendor brief description; details: ref vendor brief description; cited from earlier work
[19] = system: Toxoplasma gondii RH-2F tachyzoites
[20] = biological target: αvβ5 receptor; design: method as in vendor brief description; details: ref vendor brief description; cited from earlier work
[21] = biological target: tyrosinase; design: method as in vendor brief description; details: ref vendor brief description; cited from earlier work
[22] = system: S1P; design: method as in vendor brief description; details: ref vendor brief description; cited from earlier work
[23] = biological target: H3K27 histone demethylase JMJD3/UTX; design: method as in vendor brief description; details: ref vendor brief description; cited from earlier work
[24] = system: PI3Kγ; design: method as in vendor brief description; details: ref vendor brief description; cited from earlier work
[25] = biological target: recombinant human mGlu2; design: method as in vendor brief description; details: ref vendor brief description; cited from earlier work
[26] = biological target: rat neurons expressing native mGlu2/3 receptors; design: method as in vendor brief description; details: ref vendor brief description; cited from earlier work
[27] = biological target: recombinant human mGlu3 receptors; design: method as in vendor brief description; details: ref vendor brief description; cited from earlier work
[28] = system: β3-adrenoceptor; design: method as in vendor brief description; details: ref vendor brief description; cited from earlier work
[29] = system: 20S proteasome β5; design: method as in vendor brief description; details: read-out: IC50 CT-L activity of 20S proteasome β5; ref vendor brief description; cited from earlier work
[30] = system: LMP7; design: method as in vendor brief description; details: read-out: IC50 CT-L activity of 20S proteasome LMP7; ref vendor brief description; cited from earlier work
[31] = system: nonsense mutation; details: ref vendor brief description; read-out: EC50 nonsense mutation inhibition; cited from earlier work
[32] = system: sodium channel; design: method as in vendor brief description; details: ref vendor brief description; cited from earlier work
[33] = system: nAChR; design: method as in vendor brief description; details: ref vendor brief description; cited from earlier work
[34] = biological target: 5-HT3; design: method as in vendor brief description; details: ref vendor brief description; cited from earlier work
[35] = biological target: N-methyl-D-aspartate (NMDA) receptor; design: method as in vendor brief description; details: ref vendor brief description; cited from earlier work
[36] = biological target: myeloperoxidase; details: read-out: IC50 myeloperoxidase; ref vendor brief description; cited from earlier work
[37] = biological target: β2-adrenergic receptor; design: method as in vendor brief description; details: ref vendor brief description; cited from earlier work
[38] = system: 4-hydroxylation; design: method as in vendor brief description; details: ref vendor brief description; cited from earlier work
[39] = system: CYP2C9; design: method as in vendor brief description; details: ref vendor brief description; cited from earlier work
[40] = system: class I PI3K; design: method as in library vendor description; details: ref library vendor description; read-out: IC50 pan-class I PI3K; cited from earlier work
[41] = read-out: Parasite inhibition (%) mean, preliminary screen of compound library, mean

## Cc1ccc2c(c1)C(=O)[C@]1(O)CCN(c3ccccc3)C1=N2 [(−)-Blebbistatin]
[1]; [41]
  inhibition of growth at 5 µM: -56.7%
[2]
  IC50: 500 to 5000 nM

## CC(=O)Nc1nc2c(Oc3cc(-c4ccc(C(F)(F)F)cc4)ncn3)cccc2s1 [AMG-517]
[1]; [41]
  inhibition of growth at 5 µM: 0.6%
[3]
  IC50: < 10 nM

## COC1CCN(C(=O)c2cc(Cc3n[nH]c(=O)c4ccccc34)ccc2F)CC1 [AZD2461]
[1]; [41]
  inhibition of growth at 5 µM: 11%
[4]
  P-glycoprotein substrate property: AZD2461 is a poor P-glycoprotein substrate with lower affinity for Pgp than does olaparib.

## O=C(O[C@H]1C[N+]2(CCCOc3ccccc3)CCC1CC2)C(O)(c1cccs1)c1cccs1 [Aclidinium Bromide]
[1]; read-out: Parasite inhibition (%) mean
  inhibition of growth at 5 µM: 1.8%
[5]
  Ki: 0.16 nM
[6]
  Ki: 0.1 nM
[7]
  Ki: 0.21 nM
[8]
  Ki: 0.14 nM
[9]
  Ki: 0.14 nM

## COc1ccc(CN=c2[nH]c(N3CCC[C@H]3CO)ncc2C(=O)NCc2ncccn2)cc1Cl [Avanafil]
[1]; [41]
  inhibition of growth at 5 µM: 7.5%
[10]
  IC50: 1 nM

## COc1cc2nccc(Oc3ccc(NC(=O)C4(C(=O)Nc5ccc(F)cc5)CC4)cc3)c2cc1OC [Cabozantinib malate]
[1]; [41]
  inhibition of growth at 5 µM: 80.4%
[11]
  IC50: […]
[12]
  IC50: 6 nM
[13]
  viability at 72 h: 43.1%
[14]
  IC50: 0.035 nM
[15]
  IC50: 12 nM
[16]
  IC50: […]
[17]
  IC50: […]

## CC(C)[C@H]1C(=O)N[C@@H](CCCNC(=N)N)C(=O)NCC(=O)N[C@@H](CC(=O)O)C(=O)N[C@H](Cc2ccccc2)C(=O)N1C [Cilengitide (EMD 121974, NSC 707544)]
[18]
  IC50: […]
[19]; 72 h, 5 μM
  Parasite inhibition (%) mean: 4.9%
[20]
  IC50: 79 nM

## Oc1ccc(OC2CCCCO2)cc1 (stereo not drawn) [Deoxyarbutin]
[1]; [41]
  inhibition of growth at 5 µM: 33.4%
[21]
  IC50: 50 nM

## CCCCCCCCc1ccc(CCC(N)(CO)CO)cc1 [Fingolimod (FTY720)]
[1]; [41]
  inhibition of growth at 5 µM: 10%
[22]
  IC50: 0.033 nM

## O=C(O)CCNc1cc(N2CCc3ccccc3CC2)nc(-c2ccccn2)n1 [GSK J1]
[23]
  IC50: 60 nM

## C[C@H](Nc1ncnc2[nH]cnc12)c1cc2cccc(Cl)c2c(=O)n1-c1ccccc1 [IPI-145 (INK1197)]
[1]; [41]
  inhibition of growth at 5 µM: 1.9%
[24]
  IC50: 50 nM

## N[C@@]1(C(=O)O)CS(=O)(=O)[C@H]2[C@H](C(=O)O)[C@H]21 [LY2140023 (LY404039)]
[1]; [41]
  inhibition of growth at 5 µM: 2.9%
[25]
  Ki: 149 nM
[26]
  Ki: 88 nM
[27]
  Ki: 92 nM

## Nc1nc(CC(=O)Nc2ccc(CCNC[C@H](O)c3ccccc3)cc2)cs1 [Mirabegron (YM178)]
[1]; [41]
  inhibition of growth at 5 µM: 3.8%
[28]
  EC50: 22.4 nM

## COC[C@H](NC(=O)c1cnc(C)s1)C(=O)N[C@@H](COC)C(=O)N[C@@H](Cc1ccccc1)C(=O)C1(C)CO1 (stereo partly drawn) [Oprozomib (ONX 0912)]
[29]
  IC50: 36 nM
[1]; [41]
  inhibition of growth at 5 µM: 9%
[30]
  IC50: 82 nM

## O=C(O)c1cccc(-c2noc(-c3ccccc3F)n2)c1 [PTC124 (Ataluren)]
[1]; [41]
  inhibition of growth at 5 µM: -0.1%
[31]
  EC50: ~100 nM

## CCN(CC)CCOC(=O)c1ccc(N)cc1 [Procaine (Novocaine) HCl]
[1]; [41]
  inhibition of growth at 5 µM: 3.7%
[32]
  IC50: 60000 nM
[33]
  IC50: 45500 nM
[34]
  Kd: 1700 nM
[35]
  IC50: 296000 nM

## O=N[O-].[Na+] [Sodium Nitrite]
[36]
  IC50: 1300 nM
[19]
  Parasite inhibition (%) mean: 49.5%

## CC(C)(C)NCC(O)c1cc(O)cc(O)c1 (stereo not drawn) [Terbutaline Sulfate]
[1]; [41]
  inhibition of growth at 5 µM: 40.1%
[37]
  IC50: 53 nM

## CCCSc1nc(N[C@@H]2C[C@H]2c2ccc(F)c(F)c2)c2nnn([C@@H]3C[C@H](OCCO)[C@@H](O)[C@H]3O)c2n1 [Ticagrelor]
[38]
  IC50: […]
[1]; [41]
  inhibition of growth at 5 µM: 4.7%
[39]
  IC50: 10500 nM

## FC(F)c1nc2ccccc2n1-c1nc(N2CCOCC2)nc(N2CCOCC2)n1 [ZSTK474]
[1]; read-out: Parasite inhibition (%) mean, preliminary screen, mean
  inhibition of growth at 5 µM: 49.8%
[40]
  IC50: 37 nM

From PMC7216583 (Parasites & Vectors, 2020)
